In ChEMBL document CHEMBL1201862, “PubChem BioAssay data set” (2004):
Calls of active or inactive are those of the source. No stated cut-off is given here; in the data, actives have a measured IC50 and inactives only a lower limit.

Target: Envelope glycoprotein gp160 (Human immunodeficiency virus 1, UniProt Q6QLK5)
Assay: inhibitors of HIV fusion peptide binding, primary screen, biochemical, uHTS, fluorescence dequenching (AID 1986)

Sequence of Envelope glycoprotein gp160 (Q6QLK5 whole entry, the tested form may be a part): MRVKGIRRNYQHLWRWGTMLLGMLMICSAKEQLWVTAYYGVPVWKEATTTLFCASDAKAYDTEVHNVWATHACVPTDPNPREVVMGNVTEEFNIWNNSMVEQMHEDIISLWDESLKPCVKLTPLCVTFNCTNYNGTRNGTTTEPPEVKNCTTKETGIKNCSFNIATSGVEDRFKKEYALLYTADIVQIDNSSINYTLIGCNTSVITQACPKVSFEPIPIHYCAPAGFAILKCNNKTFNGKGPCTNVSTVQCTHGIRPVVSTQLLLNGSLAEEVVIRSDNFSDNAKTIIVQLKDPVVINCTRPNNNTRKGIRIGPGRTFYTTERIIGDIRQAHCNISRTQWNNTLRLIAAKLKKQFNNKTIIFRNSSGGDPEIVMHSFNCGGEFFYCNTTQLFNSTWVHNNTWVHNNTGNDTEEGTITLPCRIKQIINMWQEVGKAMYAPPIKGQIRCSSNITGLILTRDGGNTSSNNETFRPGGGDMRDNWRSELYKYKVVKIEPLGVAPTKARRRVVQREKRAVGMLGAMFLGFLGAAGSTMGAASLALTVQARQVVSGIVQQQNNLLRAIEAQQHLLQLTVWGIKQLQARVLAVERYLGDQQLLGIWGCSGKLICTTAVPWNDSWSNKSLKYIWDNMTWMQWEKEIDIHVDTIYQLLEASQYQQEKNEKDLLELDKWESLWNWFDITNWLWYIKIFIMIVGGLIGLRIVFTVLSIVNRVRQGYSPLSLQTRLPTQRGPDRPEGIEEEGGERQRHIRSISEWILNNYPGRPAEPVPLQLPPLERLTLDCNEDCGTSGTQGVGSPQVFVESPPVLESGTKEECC

O=C(Nc1cc(C(=O)Nc2ccccc2C(=O)O)cc(C(=O)Nc2ccccc2C(=O)O)c1)c1ccccc1
IC50: 6.36 µM (active)

COc1ccc(C(=O)Nc2ccc(/C(C)=N/NC(=O)c3ccncc3)cc2)cc1
IC50: 15 µM (active)
